Data taken from US20250009745A1, “CDK INHIBITOR” (SHANGHAI QILU PHARMACEUTICAL RESEARCH AND DEVELOPMENT …, priority 2021, published 2025).

Assays:
Experiment in all cases: CDK enzymology experiment in vitro, capillary mobility shift assay (MSA)
Format in all cases: biochemical
CDK2 = molecular target: T1, CDK2 (Homo sapiens, UniProt P24941); details: read-out: CDK2 (nM) inhibitory IC50
T1 construct: purchased Carna Company
Method: (§1) CDK1/CDK2/CDK4/CDK6/CDK7/CDK9 were purchased from Carna Company; Carliper substrate CTD3/substrate 18/substrate 8 were purchased from Gil Biochemical Company; Dinaciclib/Palbociclib were purchased from Selleckchem Company; DMSO was purchased from Sigma Company; 384-well plates were purchased from Corning Company.
(§2) • (1) Preparation of 1×Kinase buffer. • (2) Preparation of compound concentration gradient: Test concentration of the test compound was started at 1 μM, 10 μM or 30 μM, 3-fold dilution, 10 concentrations, detected in duplicate. The test compound was diluted to a 100-fold final concentration with 100% DMSO solution in a 384 source plate. Liquid handler Echo 550 was used to transfer 250 nL of 100-fold final concentration of the compound to the target plate 384-well plate. […] The 384-well plate was centrifuged at 1000 rpm for 30 seconds, and shaken to mix uniformly. • (10) The conversion rate was read with Caliper EZ Reader.
(§3) Where, conversion %_sample is the readings of conversion rate of the sample; conversion %_min: the average value of negative control wells, representing the readings of conversion rate of wells without enzyme activity; conversion %_max: the average value of positive control wells, representing the readings of conversion rate of wells without compound inhibition.
(§4) Taking the log value of the concentration as the X-axis, and the percentage inhibition rate as the Y-axis, the dose-effect curve was fitted using the log(inhibitor) vs. response—Variable slope of the analysis software GraphPad Prism 5 so as to obtain the IC50 value of each compound on the enzyme activity.
(§5) Y=Bottom+(Top−Bottom)/(1+10^((Log IC50−X)*HillSlope)). Calculation formula: […]

CDK4 = molecular target: T2, CDK4 (Homo sapiens, UniProt P11802); details: read-out: CDK4 (nM) inhibitory IC50
T2 construct: purchased Carna Company
T2 sequence (P11802 whole entry): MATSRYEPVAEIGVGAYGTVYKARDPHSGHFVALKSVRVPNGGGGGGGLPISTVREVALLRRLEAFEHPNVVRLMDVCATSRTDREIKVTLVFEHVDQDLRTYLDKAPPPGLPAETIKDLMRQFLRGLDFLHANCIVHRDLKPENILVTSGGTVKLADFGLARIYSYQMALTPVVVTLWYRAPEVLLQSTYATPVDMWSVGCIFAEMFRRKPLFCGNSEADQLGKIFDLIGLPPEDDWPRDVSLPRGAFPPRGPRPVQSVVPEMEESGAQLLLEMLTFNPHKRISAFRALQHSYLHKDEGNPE
T2 sequence (P30281 whole entry partner): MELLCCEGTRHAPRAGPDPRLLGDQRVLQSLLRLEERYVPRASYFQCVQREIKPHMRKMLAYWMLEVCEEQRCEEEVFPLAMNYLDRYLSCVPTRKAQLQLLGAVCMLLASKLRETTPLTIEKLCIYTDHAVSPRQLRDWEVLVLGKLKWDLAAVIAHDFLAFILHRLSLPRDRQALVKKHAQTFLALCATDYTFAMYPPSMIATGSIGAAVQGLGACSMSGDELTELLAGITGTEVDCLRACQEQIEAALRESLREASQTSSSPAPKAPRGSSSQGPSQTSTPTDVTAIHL
Method: as §1, §2, §3, §4, §5

CDK6 = molecular target: T3, CDK6 (Homo sapiens, UniProt Q00534); details: read-out: CDK6 (nM) inhibitory IC50
T3 construct: purchased Carna Company
T3 sequence (Q00534 whole entry): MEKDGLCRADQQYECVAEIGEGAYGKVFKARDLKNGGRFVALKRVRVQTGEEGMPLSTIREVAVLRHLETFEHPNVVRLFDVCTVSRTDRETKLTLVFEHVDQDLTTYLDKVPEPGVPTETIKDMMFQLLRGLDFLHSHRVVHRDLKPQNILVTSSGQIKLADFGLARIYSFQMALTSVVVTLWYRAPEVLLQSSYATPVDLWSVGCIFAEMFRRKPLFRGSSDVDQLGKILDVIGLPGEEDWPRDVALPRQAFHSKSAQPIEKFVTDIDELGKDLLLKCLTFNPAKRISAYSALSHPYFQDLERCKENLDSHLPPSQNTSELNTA
T3 sequence (P30281 whole entry partner): as the sequence (P30281 whole entry partner) above
Method: as §1
as §2, with “The test compound was diluted to a 100-fold final concentration with 100% DMSO solution in a 384 source plate.” left out
as §3, §4, §5

IC50 (CDK2) [nM] | IC50 (CDK4) [nM] | IC50 (CDK6) [nM] | Structure (SMILES)
< 0.5 | 0.5 to 2.5 | 0.5 to 2.5 | O=S(=O)(c1ccc(N2CCNCC2)cn1)N1CCC(Nc2ncc(C(F)(F)F)c(O[C@H]3CCOC3)n2)CC1 [Compound 178]
0.5 to 2.5 | 0.5 to 2.5 | 0.5 to 2.5 | C[C@H]1CNCCN1c1ccc(S(=O)(=O)N2CCC(Nc3ncc(C(F)(F)F)c(O[C@H]4CCOC4)n3)CC2)cc1 [Compound 198]
< 0.5 | 0.5 to 2.5 | 0.5 to 2.5 | C[C@@H]1CN(c2ccc(S(=O)(=O)N3CCC(Nc4ncc(C(F)(F)F)c(O[C@H]5CCOC5)n4)CC3)cc2)CCN1 [Compound 185]
< 0.5 | 2.5 to 10 | 10 to 50 | O=S(=O)(c1cccc(N2CCNCC2)c1)N1CCC(Nc2ncc(C(F)(F)F)c(O[C@H]3CCOC3)n2)CC1 [Compound 184]
0.5 to 2.5 | 0.5 to 2.5 | 0.5 to 2.5 | O=S(=O)(c1ccc(C2CCCNC2)cc1)N1CCC(Nc2ncc(C(F)(F)F)c(O[C@H]3CCOC3)n2)CC1 (stereo partly drawn) [Example 113, N-(1-((4-(Piperidin-3-yl)phenyl)sulfonyl)piperidin-4-yl)-4-(((S)-tetrahydrofuran-3-yl)oxy)-5-(trifluoromethyl)pyrimidin-2-amine]
0.5 to 2.5 | 0.5 to 2.5 | 0.5 to 2.5 | CN1CCN(c2ccc(S(=O)(=O)N3CCC(Nc4ncc(C#N)c(NC5CCCC5)n4)CC3)cc2)CC1 [Example 18, 4-(Cyclopentylamino)-2-((1-((4-(4-methylpiperazin-1-yl)phenyl)sulfonyl)piperidin-4-yl)amino)pyrimidine-5-carbonitrile]
< 0.5 | 0.5 to 2.5 | 0.5 to 2.5 | Cc1cc(S(=O)(=O)N2CCC(Nc3ncc(C(F)(F)F)c(O[C@H]4CCOC4)n3)CC2)cnc1N1CCNCC1 [Compound 175]
< 0.5 | 0.5 to 2.5 | 0.5 to 2.5 | O=S(=O)(c1ccc(N2CC3CNCC3C2)nc1)N1CCC(Nc2ncc(C(F)(F)F)c(O[C@H]3CCOC3)n2)CC1 (stereo partly drawn) [Compound 190]
< 0.5 | 0.5 to 2.5 | 0.5 to 2.5 | Cc1cc(S(=O)(=O)N2CCC(Nc3ncc(C(F)(F)F)c(O[C@H]4CCOC4)n3)CC2)ccc1C1=CCCNC1 [Compound 196]
0.5 to 2.5 | 0.5 to 2.5 | 0.5 to 2.5 | CN1CCC(c2ccc(S(=O)(=O)N3CCC(Nc4ncc(C#N)c(NC5CCCC5)n4)CC3)cc2)CC1 [Example 17, 4-(Cyclopentylamino)-2-((1-((4-(1-methylpiperidin-4-yl)phenyl)sulfonyl)piperidin-4-yl)amino)pyrimidine-5-carbonitrile]
0.5 to 2.5 | 2.5 to 10 | 0.5 to 2.5 | C[C@@H]1CN(c2ccc(S(=O)(=O)N3CCC(Nc4ncc(C(F)(F)F)c(O[C@H]5CCOC5)n4)CC3)cn2)C[C@@H](C)N1 [Compound 207]
< 0.5 | 0.5 to 2.5 | 0.5 to 2.5 | O=S(=O)(c1ccc(C2CCNCC2)cn1)N1CCC(Nc2ncc(C(F)(F)F)c(O[C@H]3CCOC3)n2)CC1 [Compound 177]
< 0.5 | < 0.5 | 0.5 to 2.5 | CN1CC=C(c2ccc(S(=O)(=O)N3CCC(Nc4ncc(C(F)(F)F)c(O[C@H]5CCOC5)n4)CC3)cc2)CC1 [Compound 203]
0.5 to 2.5 | 0.5 to 2.5 | 0.5 to 2.5 | O=S(=O)(c1ccc(N2CCNCC2)c(F)c1)N1CCC(Nc2ncc(C(F)(F)F)c(O[C@H]3CCOC3)n2)CC1 [Compound 172]
0.5 to 2.5 | 2.5 to 10 | 0.5 to 2.5 | C[C@@H]1CN(c2ccc(S(=O)(=O)N3CCC(Nc4ncc(C(F)(F)F)c(O[C@H]5CCOC5)n4)CC3)cc2)C[C@@H](C)N1 [Compound 208]
< 0.5 | 0.5 to 2.5 | 0.5 to 2.5 | O=S(=O)(c1ccc(C2=CCNCC2)cn1)N1CCC(Nc2ncc(C(F)(F)F)c(O[C@H]3CCOC3)n2)CC1 [Compound 176]
< 0.5 | 0.5 to 2.5 | 0.5 to 2.5 | O=S(=O)(c1ccc(C2=CCNCC2)nc1)N1CCC(Nc2ncc(C(F)(F)F)c(O[C@H]3CCOC3)n2)CC1 [Compound 173]
< 0.5 | 0.5 to 2.5 | 0.5 to 2.5 | Cc1cc(S(=O)(=O)N2CCC(Nc3ncc(C(F)(F)F)c(O[C@H]4CCOC4)n3)CC2)ccc1C1CCCNC1 (stereo partly drawn) [Compound 192]
< 0.5 | 0.5 to 2.5 | 0.5 to 2.5 | C[C@H]1CN(c2ccc(S(=O)(=O)N3CCC(Nc4ncc(C(F)(F)F)c(O[C@H]5CCOC5)n4)CC3)cn2)CCN1 [Compound 188]

The remaining lines, values behind:

Structure (SMILES) | IC50 (CDK2) [nM] | IC50 (CDK4) [nM] | IC50 (CDK6) [nM]
CN(C)CCn1cc(S(=O)(=O)N2CCC(Nc3ncc(C(F)(F)F)c(O[C@H]4CCOC4)n3)CC2)cn1 [Compound 157] | < 0.5 | 2.5 to 10 | 10 to 50
N#Cc1cnc(NC2CCN(S(=O)(=O)c3ccc(C4=CCNCC4)cc3)CC2)nc1N[C@H]1CCOC1 [Compound 92] | 2.5 to 10 | 2.5 to 10 | 0.5 to 2.5
Cn1cc(-c2ccc(S(=O)(=O)N3CCC(Nc4ncc(C#N)c(N[C@H]5CC[C@H](O)C5)n4)CC3)cc2)cn1 (single isomer, unassigned) [Compound 83] | 0.5 to 2.5 | 0.5 to 2.5 | 0.5 to 2.5
O=S(=O)(c1ccc(N2C3CNCC2C3)nc1)N1CCC(Nc2ncc(C(F)(F)F)c(O[C@H]3CCOC3)n2)CC1 [Compound 189] | < 0.5 | 0.5 to 2.5 | 0.5 to 2.5
O=S(=O)(c1ccc(C2=CCNCC2)c(F)c1)N1CCC(Nc2ncc(C(F)(F)F)c(O[C@H]3CCOC3)n2)CC1 [Compound 121] | < 0.5 | 0.5 to 2.5 | 0.5 to 2.5
Cn1cc(-c2ccc(S(=O)(=O)N3CCC(Nc4ncc(C#N)c(N[C@H]5CCC[C@H]5O)n4)CC3)cc2)cn1 [Compound 51] | 0.5 to 2.5 | 2.5 to 10 | 0.5 to 2.5
O=S(=O)(c1ccc(N2CC3CC(C2)N3)cc1)N1CCC(Nc2ncc(C(F)(F)F)c(O[C@H]3CCOC3)n2)CC1 [Compound 179] | < 0.5 | 0.5 to 2.5 | 0.5 to 2.5
O=S(=O)(c1cnn(C2CCNCC2)c1)N1CCC(Nc2ncc(C(F)(F)F)c(O[C@H]3CCOC3)n2)CC1 [Compound 119] | < 0.5 | 0.5 to 2.5 | 0.5 to 2.5
N#Cc1cnc(NC2CCN(S(=O)(=O)c3ccc(N4CCNCC4)cc3)CC2)nc1NC1CCCC1 [Compound 90] | 0.5 to 2.5 | 0.5 to 2.5 | 0.5 to 2.5
O=S(=O)(c1ccc(N2C3CCC2CNC3)nc1)N1CCC(Nc2ncc(C(F)(F)F)c(O[C@H]3CCOC3)n2)CC1 [Compound 183] | < 0.5 | 0.5 to 2.5 | 0.5 to 2.5
Cn1cc(S(=O)(=O)N2CCC(Nc3ncc([N+](=O)[O-])c(NC4CCCC4)n3)CC2)cn1 [Compound 84] | 10 to 50 | 2.5 to 10 | 0.5 to 2.5
O=S(=O)([C@H]1CCCNC1)N1CCC(Nc2ncc(C(F)(F)F)c(NC3CCCC3)n2)CC1 [Compound 163] | 2.5 to 10 | 2.5 to 10 | 0.5 to 2.5
O=S(=O)(c1ccc(N2CC[C@@H](O)C2)cc1)N1CCC(Nc2ncc(C(F)(F)F)c(O[C@H]3CCOC3)n2)CC1 [Compound 140] | 0.5 to 2.5 | 0.5 to 2.5 | 0.5 to 2.5
Cn1cc(-c2ccc(S(=O)(=O)N3CCC(Nc4ncc(C#N)c(N[C@@H]5CC[C@H](O)C5)n4)CC3)cc2)cn1 (single isomer, unassigned) [Compound 87] | 0.5 to 2.5 | 0.5 to 2.5 | 0.5 to 2.5
C[C@H]1CN(c2ccc(S(=O)(=O)N3CCC(Nc4ncc(C(F)(F)F)c(O[C@H]5CCOC5)n4)CC3)cn2)C[C@H](C)N1 [Compound 170] | < 0.5 | 0.5 to 2.5 | 0.5 to 2.5
O=S(=O)(c1ccc(N2CC3CCC(C2)N3)nc1)N1CCC(Nc2ncc(C(F)(F)F)c(O[C@H]3CCOC3)n2)CC1 [Compound 182] | < 0.5 | 0.5 to 2.5 | 0.5 to 2.5
O=S(=O)([C@@H]1CCCNC1)N1CCC(Nc2ncc(C(F)(F)F)c(NC3CCCC3)n2)CC1 [Compound 162] | 2.5 to 10 | 2.5 to 10 | 10 to 50
O=S(=O)(c1ccc(C2=CCNCC2)cc1)N1CCC(Nc2ncc(C(F)(F)F)c(N[C@H]3CCOC3)n2)CC1 [Compound 93] | 0.5 to 2.5 | 2.5 to 10 | 0.5 to 2.5
Cn1cc(S(=O)(=O)N2CCC(Nc3ncc(C#N)c(NC4(C)CCCC4)n3)CC2)cn1 [Compound 118] | 0.5 to 2.5 | 0.5 to 2.5 | 0.5 to 2.5
O=S(=O)(c1ccc(C2CCNCC2)cc1)N1CCC(Nc2ncc(C(F)(F)F)c(NC3CCCC3(F)F)n2)CC1 (stereo not drawn) [Compound 137] | 0.5 to 2.5 | 0.5 to 2.5 | 0.5 to 2.5
